Assay results taken from ChEMBL document CHEMBL1949530, “Fatty acid amide hydrolase inhibitors. 3: tetra-substituted azetidine ureas with in vivo activity” (Bioorg Med Chem Lett, 2012).
In brackets after ≈: the same amount, converted by molar mass.

Tests used:
[1] = Drug metabolism in rat liver microsomes after 10 mins; assay type: ADME, Microsome; details: read-out: Drug metabolism
Cannabinoid receptor 1 = Cannabinoid receptor 1 (Homo sapiens, UniProt P21554); test: Displacement of [3H]SR141716A from human CB1 receptor
[2] = biological target: T1, Fatty-acid amide hydrolase 1 (Homo sapiens, UniProt O00519); test: Inhibition of human FAAH expressed in CHO cells using 7-amino-4-methylcoumarine amide as substrate preincubated for 1 hr by fluorimetry; assay type: cell-based
T1 sequence (O00519 whole entry): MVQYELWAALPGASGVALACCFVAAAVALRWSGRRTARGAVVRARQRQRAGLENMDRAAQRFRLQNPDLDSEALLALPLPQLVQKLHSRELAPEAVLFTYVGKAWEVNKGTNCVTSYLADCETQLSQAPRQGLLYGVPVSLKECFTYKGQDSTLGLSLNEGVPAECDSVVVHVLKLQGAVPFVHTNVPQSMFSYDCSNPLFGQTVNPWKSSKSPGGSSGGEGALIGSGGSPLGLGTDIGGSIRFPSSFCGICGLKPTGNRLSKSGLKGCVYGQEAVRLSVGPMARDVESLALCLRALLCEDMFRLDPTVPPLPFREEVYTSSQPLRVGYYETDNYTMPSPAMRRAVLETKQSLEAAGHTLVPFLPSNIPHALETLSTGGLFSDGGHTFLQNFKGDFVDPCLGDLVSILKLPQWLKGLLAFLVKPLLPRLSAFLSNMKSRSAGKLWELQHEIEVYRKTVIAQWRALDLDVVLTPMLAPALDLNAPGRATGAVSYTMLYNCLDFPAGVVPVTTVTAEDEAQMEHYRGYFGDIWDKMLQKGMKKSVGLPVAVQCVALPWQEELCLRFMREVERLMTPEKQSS

[3] = biological target: T2, Fatty-acid amide hydrolase 1 (Rattus norvegicus, UniProt P97612); test: Inhibition of rat FAAH using 7-amino-4-methylcoumarine amide as substrate preincubated for 1 hr by fluorimetry
T2 sequence (P97612 whole entry): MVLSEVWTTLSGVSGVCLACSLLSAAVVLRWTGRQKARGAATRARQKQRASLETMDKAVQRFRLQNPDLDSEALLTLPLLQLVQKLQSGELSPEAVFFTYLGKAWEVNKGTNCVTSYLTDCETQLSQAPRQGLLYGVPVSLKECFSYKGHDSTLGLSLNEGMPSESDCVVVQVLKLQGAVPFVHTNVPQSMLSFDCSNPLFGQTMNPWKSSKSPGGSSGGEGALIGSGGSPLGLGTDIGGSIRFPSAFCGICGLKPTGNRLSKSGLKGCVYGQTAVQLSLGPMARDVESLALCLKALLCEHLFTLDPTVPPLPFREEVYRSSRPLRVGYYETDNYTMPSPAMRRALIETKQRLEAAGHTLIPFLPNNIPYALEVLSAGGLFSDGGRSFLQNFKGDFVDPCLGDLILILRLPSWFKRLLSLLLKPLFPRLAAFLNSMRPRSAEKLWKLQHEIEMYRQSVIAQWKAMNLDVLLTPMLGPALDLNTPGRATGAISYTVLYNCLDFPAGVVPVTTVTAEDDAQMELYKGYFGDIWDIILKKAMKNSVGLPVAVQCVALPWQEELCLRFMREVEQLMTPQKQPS

[4] = Drug metabolism in human liver microsomes after 10 mins; assay type: ADME, Microsome; details: read-out: Drug metabolism
Cannabinoid receptor 2 = Cannabinoid receptor 2 (Homo sapiens, UniProt P34972); test: Displacement of [3H]CP55940 from human CB2 receptor
Cytochrome P450 2D6 = Cytochrome P450 2D6 (Homo sapiens, UniProt P10635); test: Inhibition of CYP2D6; assay type: ADME
Cytochrome P450 1A2 = biological target: T3, Cytochrome P450 1A2 (Homo sapiens, UniProt P05177); test: Inhibition of CYP1A2; assay type: ADME
T3 sequence (P05177 whole entry): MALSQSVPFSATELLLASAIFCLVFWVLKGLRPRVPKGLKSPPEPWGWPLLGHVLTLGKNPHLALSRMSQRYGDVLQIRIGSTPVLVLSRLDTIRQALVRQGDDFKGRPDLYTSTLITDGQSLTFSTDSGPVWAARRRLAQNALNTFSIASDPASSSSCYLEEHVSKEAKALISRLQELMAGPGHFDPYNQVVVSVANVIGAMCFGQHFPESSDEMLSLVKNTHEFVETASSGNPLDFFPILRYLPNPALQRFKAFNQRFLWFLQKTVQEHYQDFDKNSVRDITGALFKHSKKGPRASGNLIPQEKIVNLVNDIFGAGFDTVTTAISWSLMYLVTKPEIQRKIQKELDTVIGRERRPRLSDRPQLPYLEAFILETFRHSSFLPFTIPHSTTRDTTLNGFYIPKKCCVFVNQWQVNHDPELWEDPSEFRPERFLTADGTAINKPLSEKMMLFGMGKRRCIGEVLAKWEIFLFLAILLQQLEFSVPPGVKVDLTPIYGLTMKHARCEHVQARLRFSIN

Brain [5] = test: Drug uptake in rat brain at 0.3 mg/kg, iv; assay type: ADME, organism-based; parameters: dose 0.3 mg/kg, route intravenous; details: in vivo
Plasma [6] = test: Ratio of plasma concentration in rat hepatic portal vein to plasma concentration in rat vena cava at 4 mg/kg, po; assay type: ADME, organism-based; parameters: dose 4 mg/kg, route oral; details: in vivo
Rattus norvegicus [7] = test: Inhibition of FAAH in iv dosed rat assessed as AEA level in brain administered 30 mins prior to anandamide loading measured after 30 mins; assay type: functional, organism-based
Cytochrome P450 3A4 = Cytochrome P450 3A4 (Homo sapiens, UniProt P08684); test: Inhibition of CYP3A4; assay type: ADME
Cytochrome P450 2C9 = Cytochrome P450 2C9 (Homo sapiens, UniProt P11712); test: Inhibition of CYP2C9; assay type: ADME
Rattus norvegicus [8] = test: Inhibition of FAAH in rat assessed as AEA level in brain at 3 mg/kg, iv administered 30 mins prior to anandamide loading measured after 30 mins relative to vehicle treated control; assay type: functional
[9] = Cmax in rat at 4 mg/kg, po; assay type: ADME, organism-based; parameters: dose 4 mg/kg, route oral; details: in vivo
[10] = Aqueous solubility of the compound at pH 6.8; assay type: physicochemical; details: aqueous medium
Rattus norvegicus [11] = test: Inhibition of FAAH in rat assessed as AEA level in brain at 1 mg/kg, iv administered 30 mins prior to anandamide loading measured after 30 mins relative to vehicle treated control; assay type: functional
[12] = Aqueous solubility of the compound at pH 1; assay type: physicochemical; details: aqueous medium
[13] = Oral bioavailability in rat at 4 mg/kg; assay type: ADME, organism-based; details: in vivo
Plasma [14] = test: Plasma concentration in rat at 1 mg/kg, iv; assay type: ADME, organism-based; parameters: dose 1 mg/kg, route intravenous; details: in vivo
[15] = Apparent permeability from basolateral to apical side of human Caco2 cells; assay type: ADME, cell-based; details: Caco-2
Brain [16] = test: Drug uptake in rat brain at 1 mg/kg, iv; assay type: ADME, organism-based; parameters: dose 1 mg/kg, route intravenous; details: in vivo
Brain [17] = test: Drug uptake in rat brain at 3 mg/kg, iv; assay type: ADME, organism-based; parameters: dose 3 mg/kg, route intravenous; details: in vivo
Cytochrome P450 2C19 = Cytochrome P450 2C19 (Homo sapiens, UniProt P33261); test: Inhibition of CYP2C19; assay type: ADME
Plasma [18] = test: Plasma concentration in rat at 3 mg/kg, iv; assay type: ADME, organism-based; parameters: dose 3 mg/kg, route intravenous; details: in vivo
Rattus norvegicus [19] = test: Inhibition of FAAH in rat assessed as AEA level in brain at 0.3 mg/kg, iv administered 30 mins prior to anandamide loading measured after 30 mins relative to vehicle treated control; assay type: functional
[20] = Apparent permeability from apical to basolateral side of human Caco2 cells; assay type: ADME, cell-based; details: Caco-2
[21] = biological target: Voltage-gated inwardly rectifying potassium channel KCNH2 (Homo sapiens, UniProt Q12809); test: Inhibition of human ERG
[22] = Volume of distribution in rat at 2 mg/kg, iv; assay type: ADME, organism-based; parameters: dose 2 mg/kg, route intravenous; details: in vivo
Plasma [23] = test: Plasma concentration in rat at 0.3 mg/kg, iv; assay type: ADME, organism-based; parameters: dose 0.3 mg/kg, route intravenous; details: in vivo
[24] = Plasma clearance in rat at 2 mg/kg, iv; assay type: ADME, organism-based; parameters: dose 2 mg/kg, route intravenous
Monoglyceride lipase = biological target: T4, Monoglyceride lipase (Homo sapiens, UniProt Q99685); test: Inhibition of human recombinant N-His6-tagged MAGL expressed in Escherichia coli using 7-Hydroxycoumarinyl arachidonate as substrate by fluorimetry
T4 sequence (Q99685 whole entry): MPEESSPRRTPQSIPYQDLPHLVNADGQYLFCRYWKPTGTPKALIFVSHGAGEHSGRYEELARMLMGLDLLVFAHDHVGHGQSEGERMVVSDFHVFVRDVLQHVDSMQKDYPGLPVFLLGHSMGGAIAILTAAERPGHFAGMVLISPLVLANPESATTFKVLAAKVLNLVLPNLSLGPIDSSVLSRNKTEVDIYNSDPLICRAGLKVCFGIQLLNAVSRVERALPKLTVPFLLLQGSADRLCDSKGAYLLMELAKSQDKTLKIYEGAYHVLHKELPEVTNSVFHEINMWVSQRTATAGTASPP

Cannabinoid receptor 1, sequence (P21554 whole entry): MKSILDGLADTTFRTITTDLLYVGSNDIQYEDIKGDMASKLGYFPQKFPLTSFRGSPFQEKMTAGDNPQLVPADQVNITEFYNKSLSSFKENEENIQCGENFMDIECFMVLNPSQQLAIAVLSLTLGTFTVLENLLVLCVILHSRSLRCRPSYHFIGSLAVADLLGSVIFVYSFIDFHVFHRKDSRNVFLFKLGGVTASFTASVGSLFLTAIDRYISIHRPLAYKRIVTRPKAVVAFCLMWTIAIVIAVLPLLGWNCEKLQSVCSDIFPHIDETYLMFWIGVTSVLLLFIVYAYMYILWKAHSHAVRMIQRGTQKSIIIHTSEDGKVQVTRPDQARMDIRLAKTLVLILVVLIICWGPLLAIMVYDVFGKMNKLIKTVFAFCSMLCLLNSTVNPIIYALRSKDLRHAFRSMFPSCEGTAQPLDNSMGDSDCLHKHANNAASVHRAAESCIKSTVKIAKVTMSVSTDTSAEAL
Cannabinoid receptor 2, sequence (P34972 whole entry): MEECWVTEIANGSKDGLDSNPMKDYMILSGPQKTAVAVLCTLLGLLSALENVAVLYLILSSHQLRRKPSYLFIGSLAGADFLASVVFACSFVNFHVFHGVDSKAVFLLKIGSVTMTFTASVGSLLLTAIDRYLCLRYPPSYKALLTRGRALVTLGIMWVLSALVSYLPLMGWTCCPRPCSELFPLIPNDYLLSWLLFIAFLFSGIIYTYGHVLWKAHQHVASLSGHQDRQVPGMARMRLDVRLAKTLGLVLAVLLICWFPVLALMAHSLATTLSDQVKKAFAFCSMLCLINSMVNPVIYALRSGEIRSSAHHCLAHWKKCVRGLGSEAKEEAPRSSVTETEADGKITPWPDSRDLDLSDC
Cytochrome P450 2C9, sequence (P11712 whole entry): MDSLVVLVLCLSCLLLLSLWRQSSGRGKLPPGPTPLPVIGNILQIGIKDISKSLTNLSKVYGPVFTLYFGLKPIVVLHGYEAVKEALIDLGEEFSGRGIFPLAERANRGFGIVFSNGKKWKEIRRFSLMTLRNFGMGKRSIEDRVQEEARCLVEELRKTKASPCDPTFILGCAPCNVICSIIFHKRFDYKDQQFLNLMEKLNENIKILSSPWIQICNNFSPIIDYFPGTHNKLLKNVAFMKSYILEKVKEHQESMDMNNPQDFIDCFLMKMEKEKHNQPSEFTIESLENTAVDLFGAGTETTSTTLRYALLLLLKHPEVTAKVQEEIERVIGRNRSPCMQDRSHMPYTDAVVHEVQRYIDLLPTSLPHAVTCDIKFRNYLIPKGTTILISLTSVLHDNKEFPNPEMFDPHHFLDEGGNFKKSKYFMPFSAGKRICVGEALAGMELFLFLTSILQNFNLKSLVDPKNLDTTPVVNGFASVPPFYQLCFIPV
Voltage-gated inwardly rectifying potassium channel KCNH2, sequence (Q12809 whole entry): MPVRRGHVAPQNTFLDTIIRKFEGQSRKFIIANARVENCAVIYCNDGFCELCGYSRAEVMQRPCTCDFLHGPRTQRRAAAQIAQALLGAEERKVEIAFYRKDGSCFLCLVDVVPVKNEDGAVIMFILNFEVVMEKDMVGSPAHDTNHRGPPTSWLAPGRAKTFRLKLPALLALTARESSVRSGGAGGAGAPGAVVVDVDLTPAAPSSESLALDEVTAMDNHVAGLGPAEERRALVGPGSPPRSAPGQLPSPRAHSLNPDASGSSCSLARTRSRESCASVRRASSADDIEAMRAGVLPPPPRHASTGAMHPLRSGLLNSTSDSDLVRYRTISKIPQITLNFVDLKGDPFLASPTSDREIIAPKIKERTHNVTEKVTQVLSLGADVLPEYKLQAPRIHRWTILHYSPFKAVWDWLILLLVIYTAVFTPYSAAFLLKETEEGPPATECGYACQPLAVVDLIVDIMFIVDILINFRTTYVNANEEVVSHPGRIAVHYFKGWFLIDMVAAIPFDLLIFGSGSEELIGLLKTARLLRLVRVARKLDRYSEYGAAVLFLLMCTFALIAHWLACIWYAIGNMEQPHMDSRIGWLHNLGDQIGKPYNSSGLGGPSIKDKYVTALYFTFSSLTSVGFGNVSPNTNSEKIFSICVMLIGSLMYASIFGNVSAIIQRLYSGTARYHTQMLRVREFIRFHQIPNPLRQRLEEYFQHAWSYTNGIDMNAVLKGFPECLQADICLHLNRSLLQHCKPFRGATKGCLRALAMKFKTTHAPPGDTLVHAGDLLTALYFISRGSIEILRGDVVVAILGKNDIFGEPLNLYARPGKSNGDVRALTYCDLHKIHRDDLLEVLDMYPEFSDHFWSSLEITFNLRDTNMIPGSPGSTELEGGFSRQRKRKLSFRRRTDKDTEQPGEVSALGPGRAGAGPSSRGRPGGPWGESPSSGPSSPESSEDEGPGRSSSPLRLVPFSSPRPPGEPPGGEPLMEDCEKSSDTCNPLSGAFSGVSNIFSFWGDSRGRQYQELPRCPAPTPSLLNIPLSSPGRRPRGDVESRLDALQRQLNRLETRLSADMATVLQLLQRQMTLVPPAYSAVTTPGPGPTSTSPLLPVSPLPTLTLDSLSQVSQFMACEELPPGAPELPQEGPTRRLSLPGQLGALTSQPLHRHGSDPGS
Cytochrome P450 2C19, sequence (P33261 whole entry): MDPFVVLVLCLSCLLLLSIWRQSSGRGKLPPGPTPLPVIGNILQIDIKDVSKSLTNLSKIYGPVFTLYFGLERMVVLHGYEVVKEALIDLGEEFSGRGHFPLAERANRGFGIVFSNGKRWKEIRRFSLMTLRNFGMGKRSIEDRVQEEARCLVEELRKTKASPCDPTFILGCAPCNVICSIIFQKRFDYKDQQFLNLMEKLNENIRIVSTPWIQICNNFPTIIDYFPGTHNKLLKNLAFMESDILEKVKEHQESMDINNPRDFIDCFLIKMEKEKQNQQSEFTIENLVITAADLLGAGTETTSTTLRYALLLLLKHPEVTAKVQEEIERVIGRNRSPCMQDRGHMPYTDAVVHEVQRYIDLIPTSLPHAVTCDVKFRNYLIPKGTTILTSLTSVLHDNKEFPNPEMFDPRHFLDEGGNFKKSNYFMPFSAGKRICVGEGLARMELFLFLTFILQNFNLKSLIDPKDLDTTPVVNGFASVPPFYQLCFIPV
Cytochrome P450 3A4, sequence (P08684 whole entry): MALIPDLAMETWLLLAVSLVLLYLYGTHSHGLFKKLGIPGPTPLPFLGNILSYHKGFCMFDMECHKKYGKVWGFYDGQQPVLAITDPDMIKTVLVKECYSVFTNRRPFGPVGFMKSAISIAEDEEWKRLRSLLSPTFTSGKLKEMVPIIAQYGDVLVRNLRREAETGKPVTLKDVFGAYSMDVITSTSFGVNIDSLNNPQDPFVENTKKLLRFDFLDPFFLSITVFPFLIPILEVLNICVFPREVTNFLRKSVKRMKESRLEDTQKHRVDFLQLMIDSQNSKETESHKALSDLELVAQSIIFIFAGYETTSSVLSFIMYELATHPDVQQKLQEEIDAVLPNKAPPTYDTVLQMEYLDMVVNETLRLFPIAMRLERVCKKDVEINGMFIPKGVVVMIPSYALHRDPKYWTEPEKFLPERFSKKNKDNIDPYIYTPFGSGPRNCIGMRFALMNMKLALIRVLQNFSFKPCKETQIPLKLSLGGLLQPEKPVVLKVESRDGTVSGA
Cytochrome P450 2D6, sequence (P10635 whole entry): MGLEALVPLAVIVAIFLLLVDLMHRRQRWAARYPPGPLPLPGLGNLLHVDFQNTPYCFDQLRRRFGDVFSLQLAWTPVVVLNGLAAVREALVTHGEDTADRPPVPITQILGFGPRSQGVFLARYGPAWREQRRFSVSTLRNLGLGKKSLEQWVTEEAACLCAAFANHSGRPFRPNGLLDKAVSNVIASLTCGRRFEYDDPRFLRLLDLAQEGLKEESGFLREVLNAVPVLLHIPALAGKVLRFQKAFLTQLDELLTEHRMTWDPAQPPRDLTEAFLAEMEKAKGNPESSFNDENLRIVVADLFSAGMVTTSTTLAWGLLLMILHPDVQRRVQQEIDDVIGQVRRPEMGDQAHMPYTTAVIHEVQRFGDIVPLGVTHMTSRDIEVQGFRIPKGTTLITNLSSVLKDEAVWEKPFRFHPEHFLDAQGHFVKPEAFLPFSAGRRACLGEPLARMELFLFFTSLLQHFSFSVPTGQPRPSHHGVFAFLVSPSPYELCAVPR

O=C(N1CCCCC1)N1CC(O[C@H](c2ccc(Cl)cc2)c2cccnc2Cl)C1
metabolised at 10 min [1]: > 99% | Ki (Cannabinoid receptor 1): 7 nM | IC50 [2]: > 500000 nM | IC50 [3]: 42000 nM | metabolised at 10 min [4]: 78%

CN(Cc1ccccc1)C(=O)N1CC(O[C@H](c2ccc(Cl)cc2)c2cccnc2Cl)C1
Ki (Cannabinoid receptor 2): 490 nM | metabolised at 10 min [1]: 95% | Ki (Cannabinoid receptor 1): 1.5 nM | IC50 [2]: 40800 nM | IC50 [3]: 4530 nM | metabolised at 10 min [4]: 92%

CN(Cc1ccccc1)C(=O)N1CC(O[C@@H](c2ccc(Cl)cc2)c2cccnc2Cl)C1
Ki (Cannabinoid receptor 2): 4020 nM | metabolised at 10 min [1]: 98% | Ki (Cannabinoid receptor 1): 249 nM | IC50 [2]: 887 nM | IC50 [3]: 94 nM | metabolised at 10 min [4]: 94%

O=C(N1CCCCC1)N1CC(O[C@@H](c2ccc(Cl)cc2)c2cccnc2Cl)C1
IC50 (Cytochrome P450 2D6): > 10000 nM | IC50 (Cytochrome P450 1A2): > 10000 nM | Drug uptake (Brain [5]): 18 ng/g | Ratio (Plasma [6]): 17 | inhibition (Rattus norvegicus [7]): Dose-dependent effect | metabolised at 10 min [1]: 98% | IC50 (Cytochrome P450 3A4): > 10000 nM | IC50 (Cytochrome P450 2C9): > 10000 nM | fold change (FC) (Rattus norvegicus [8]): 5.1 | Cmax [9]: 5 ng/mL | solubility [10]: 175 µM (≈ 73.6 µg/mL) | IC50 [2]: 973 nM | fold change (FC) (Rattus norvegicus [11]): 3.3 | IC50 [3]: 112 nM | solubility [12]: 158 µM (≈ 66.4 µg/mL) | bioavailability [13]: 2.4% | metabolised at 10 min [4]: 92% | Cp (Plasma [14]): 72 ng/g | Papp B→A [15]: 27.5 ×10⁻⁶ cm/s | Drug uptake (Brain [16]): 79 ng/g | Drug uptake (Brain [17]): 137 ng/g | IC50 (Cytochrome P450 2C19): 2050 nM | Cp (Plasma [18]): 109 ng/g | fold change (FC) (Rattus norvegicus [19]): 1.7 | Papp A→B [20]: 31.7 ×10⁻⁶ cm/s | IC50 [21]: 30800 nM | Vd [22]: 3.3 L/kg | Cp (Plasma [23]): 8.5 ng/g | clearance [24]: 47 mL/min/kg | IC50 (Monoglyceride lipase): 22300 nM

O=C(N1CCCCCC1)N1CC(OC(c2ccc(Cl)cc2)c2cccnc2Cl)C1 (racemic)
metabolised at 10 min [1]: 98% | IC50 [2]: 11100 nM | IC50 [3]: 647 nM | metabolised at 10 min [4]: 92%

O=C(N1CCCCC1)N1CC(OC(c2ccc(Cl)cc2)c2ccc[nH]c2=O)C1 (racemic)
metabolised at 10 min [1]: 85% | IC50 [2]: 39700 nM | IC50 [3]: 2670 nM | metabolised at 10 min [4]: 53%

O=C(NCc1ccccc1)N1CC(OC(c2ccc(Cl)cc2)c2cccnc2Cl)C1 (racemic)
metabolised at 10 min [1]: 45% | IC50 [2]: > 500000 nM | IC50 [3]: 11500 nM | metabolised at 10 min [4]: 20%

CN(Cc1ccccc1)C(=O)N1CC(OC(c2ccc(Cl)cc2)c2cccnc2Cl)C1 (racemic)
metabolised at 10 min [1]: 98% | IC50 [2]: 2090 nM | IC50 [3]: 242 nM | metabolised at 10 min [4]: 95%
